From US10005844B2, “Polynucleotides encoding anti-Notch1 NRR antibody polypeptides” (Genentech, Inc., priority 2007, dated 2018)

Assays:
Format in all cases: cell-based
[1] = tested on: OVCAR-3; test: CellTiter-Glo Luminescent Cell Viability Assay, OVCAR-3; details: ovarian cancer cell line, FIG. 17
Description: (§1) The effects of anti-Notch1 NRR and the gamma secretase inhibitors DAPT and “Compound E” (CmpE) on a panel of cancer cell lines were examined. […] This assay determines the number of viable cells in culture based on quantitation of ATP present, which is an indication of metabolically active cells. Luminescence is quantified as “relative luminescent units” in FIG. 17 (y-axis).

[2] = tested on: MT-3; test: CellTiter-Glo Luminescent Cell Viability Assay, MT-3; details: breast carcinoma line, FIG. 17
Description: as §1

[3] = tested on: Mouse C2C12 myoblasts; test: C2C12 myoblast differentiation assay; details: Antibody A 200 ng/ml, Compound E 1 uM, four days, FIG. 9 and 10
Protocol: Mouse C2C12 myoblasts differentiate into myotubes when treated with differentiation medium. Co-culture with Jagged1 ligand-expressing cells inhibits differentiation by stimulating Notch signaling.
In particular, mouse C2C12 myoblast cells were plated in a 24-well tissue culture dish with a sterile round, 10 mm cover slip in the bottom at 2.5×10^4 cells per ml, using 1 ml per well. Cells were allowed to attach and grow for 22 hours in growth medium (DMEM with 10% FBS) at 37° C., 5% CO2. The growth medium was then aspirated and differentiation medium (DM) was added (DMEM with 6% Horse Serum). Cells were treated with: A. DM alone; B. DM with 3T3-J1 cells; C. […] Cells were incubated at 37° C., 5% CO2 under these conditions for four days. Cover slips were retrieved, and cells were fixed with 4% paraformaldehyde and permeablized with 0.2% Triton X-100 in PBS. Cells were then blocked with 10% FBS in PBS. An antibody recognizing Myosin Heavy Chain (Millipore, Anti-Myosin HC, clone A4.1025 ascites) and a goat anti-mouse IgG (H+L) secondary antibody conjugated to Alexa® 488 (Molecular Probes) was used to stain the differentiated myotubes. DAPI was used to counter-stain the nuclei. Images of three different fields were taken for each condition. Metamorph software (Molecular Devices) was used to count the number of nuclei and the area of Alexa® 488 stain. […]

`C[C@H](NC(=O)Cc1cc(F)cc(F)c1)C(=O)N[C@H](C(=O)OC(C)(C)C)c1ccccc1` [DAPT, N—[N-(3,5-difluorophenacetyl)-L-alanyl]-S-phenylglycine t-butyl ester] was tested, and the “Cell viability (ATP levels), OVCAR-3” value [1] was “reduced ATP levels” and the “Cell viability (ATP levels), MT-3” value [2] was “reduced ATP levels”.
In the case of `C[C@H](NC(=O)Cc1cc(F)cc(F)c1)C(=O)N[C@H]1N=C(c2ccccc2)c2ccccc2N(C)C1=O` [Compound E], the “Differentiation of C2C12 myoblasts blocked by Jagged1 co-culture” value [3] is reported as “restored differentiation”, the “Cell viability (ATP levels), OVCAR-3” value [1] is reported as “reduced ATP levels” and the “Cell viability (ATP levels), MT-3” value [2] is reported as “reduced ATP levels”.
